In test [1] the target is T1, SERT WT (Homo sapiens, UniProt P31645).
T1 construct: expressed in transfected cells; host or cells: COS-7
In words: [3H]5-HT uptake in intact COS-7 cells. The settings on record: read-out: KM (5-HT); SERT WT. It is filed as cell-based.

In test [2] the target is T1, SERT WT. In words: [3H]S-CIT competition (equilibrium) binding on COS-7 membranes.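 Further: transiently transfected cell membranes incubated 1 h at room temperature with 5–10 nM [3H]S-CIT, nonspecific binding defined using 5 µM paroxetine.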 As to conditions: COS-7 membranes, SERT WT; read-out: Inhibition of [^3H]S-CIT binding (IC50).
The target of test [3] is T1, SERT WT. Briefly: [3H]S-CIT dissociation rate assay (allosteric potency). It is filed as binding. The settings on record: for pIC50: read-out: Allosteric potency inhibition of [^3H]S-CIT dissociation (IC50).
Test [4] concerns the target T1, SERT WT. Briefly: [3H]IMI dissociation rate assay (allosteric potency).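 On all read-outs here: membranes of COS-7 cells transiently expressing hSERT, dissociation of prebound radioligand tracked by filtration over seven time points (5–70 min), rate constant with test ligand expressed relative to buffer-only rate.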 It is filed as binding. The settings on record: SERT WT; for pIC50: read-out: Allosteric potency inhibition of [^3H]IMI dissociation (IC50).
Test [5] relates to extracellular 5-HT levels in rat hippocampus. In words: Microdialysis in ventral hippocampus of freely moving rats.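 On extracellular 5-HT level: percent of mean basal level in three fractions before perfusion start.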 Also on record: extracellular 5-HT level / AUC: unit not given here. The settings on record: single animals. The class given is in vivo.
[6] abbreviates: log conc -5.9101, listed as AF60098.
Where [7] appears, read: log conc -5.4318, listed as AE56461.
Where [8] appears, read: log conc -5.9101, listed as AE56461.

pIC50: −log10 of the molar value. Several values for one entry are separate records, joined by “and”; a condition that tells them apart may be missing. Identical values can stand only once.

The Km is the concentration of substrate that gives half-maximal velocity. A word on the pIC50: it is the IC50 on a negative log10 scale, so that one unit is a factor of ten.

T1 sequence (P31645 whole entry): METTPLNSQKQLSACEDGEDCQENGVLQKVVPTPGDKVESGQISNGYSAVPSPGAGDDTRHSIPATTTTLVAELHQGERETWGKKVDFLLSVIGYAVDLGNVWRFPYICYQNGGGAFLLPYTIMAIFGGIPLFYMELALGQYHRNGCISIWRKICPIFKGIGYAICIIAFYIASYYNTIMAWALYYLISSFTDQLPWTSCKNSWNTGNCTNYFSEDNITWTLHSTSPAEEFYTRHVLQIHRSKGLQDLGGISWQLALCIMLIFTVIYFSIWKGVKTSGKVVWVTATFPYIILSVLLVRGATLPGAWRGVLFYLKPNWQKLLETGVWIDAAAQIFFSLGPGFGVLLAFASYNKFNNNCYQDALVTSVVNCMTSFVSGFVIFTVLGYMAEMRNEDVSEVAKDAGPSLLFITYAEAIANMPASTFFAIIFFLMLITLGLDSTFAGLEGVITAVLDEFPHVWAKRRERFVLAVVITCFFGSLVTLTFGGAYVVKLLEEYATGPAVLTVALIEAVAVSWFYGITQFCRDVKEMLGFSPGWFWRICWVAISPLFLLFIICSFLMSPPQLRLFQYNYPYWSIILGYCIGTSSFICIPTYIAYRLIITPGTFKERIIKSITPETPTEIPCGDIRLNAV

`NCCc1c[nH]c2ccc(O)cc12` [5-HT, Serotonin, reference compound]: the Km on SERT WT [1] is 0.52 µM.
In the case of `NC(=O)c1ccc2c(c1)CO[C@@]2(CCCN1CC=C(c2ccc3ccc(=O)[nH]c3c2)CC1)c1ccc(F)cc1` [AF, (S)-1-(4-fluorophenyl)-1-(3-(4-(2-oxo-1,2-dihydroquinolin-7-yl)-3,6-dihydropyridin-1(2H)-yl)propyl)-1,3-dihydroisobenzofuran-5-carboxamide], the pIC50 is 7.10 on SERT WT [2], 4.98 at SERT WT [3] and 6.72 at SERT WT [4]. The “[^3H]S-CIT dissociation relative to control (source data Fig 3B)” value is 0.1701 and 0.2211 and 0.1573 and 0.2182 and 0.2661 at SERT WT [3] (log conc -4, listed as AF60098); 0.2756 and 0.2914 and 0.2326 and 0.2923 and 0.3084 on SERT WT [3] (log conc -4.47756, listed as AF60098); 0.3758 and 0.4105 and 0.4138 and 0.4162 and 0.3863 on SERT WT [3] (log conc -4.95468, listed as AF60098); 0.7059 and 0.6013 and 0.6811 and 0.5633 and 0.7156 on SERT WT [3] (log conc -5.4318, listed as AF60098); 0.8853 and 0.874 and 0.8934 and 0.8911 and 0.9427 on SERT WT [3] (setting [6]); 0.9692 and 0.7987 and 0.9599 and 0.9034 and 0.9936 at SERT WT [3] (log conc -6.38561, listed as AF60098). Besides, the “[^3H]S-CIT dissociation relative to control (source data Fig 3B)” value on SERT WT [3] (log conc -6.86273, listed as AF60098) is 0.955 and 0.9328 and 0.9433 and 0.9567 and 0.9549. Also, the “[^3H]IMI dissociation relative to control (source data Fig 3C)” value was 0.2397 and 0.2132 and 0.1806 and 0.1901 and 0.1781 at SERT WT [4] (setting [6]); 0.6028 and 0.4774 and 0.425 and 0.3481 and 0.3211 at SERT WT [4] (log conc -6.3856, listed as AF60098); 0.7993 and 0.6981 and 0.6134 and 0.5939 and 0.5386 at SERT WT [4] (log conc -6.8627, listed as AF60098); 0.7825 and 0.9163 and 0.612 and 0.781 and 0.6966 at SERT WT [4] (log conc -7.3398, listed as AF60098); 0.8219 and 0.9518 and 0.9715 and 0.9341 and 0.8939 on SERT WT [4] (log conc -7.817, listed as AF60098).
Take `NC(=O)c1ccc2c(c1)CO[C@@]2(CCCN1CCC(c2ccc3c(c2)NC(=O)CC3)CC1)c1ccc(F)cc1` [AE, (S)-1-(4-fluorophenyl)-1-(3-(4-(2-oxo-1,2,3,4-tetrahydroquinolin-7-yl)piperidin-1-yl)propyl)-1,3-dihydroisobenzofuran-5-carboxamide]: the negative logarithm of the IC50 (pIC50) on SERT WT [2] is 5.98; on SERT WT [3] it was 4.47; at SERT WT [4] it was 6.92. The “[^3H]S-CIT dissociation relative to control (source data Fig 3B)” value was 0.304 and 0.27 and 0.327 on SERT WT [3] (log conc -4, listed as AE56461); 0.466 and 0.496 and 0.522 on SERT WT [3] (log conc -4.47756, listed as AE56461); 0.654 and 0.732 and 0.716 on SERT WT [3] (log conc -4.95468, listed as AE56461); 0.892 and 0.93 and 0.888 on SERT WT [3] (setting [7]); 0.912 and 1.007 and 0.973 at SERT WT [3] (setting [8]); 0.927 and 1.032 and 0.97 at SERT WT [3] (log conc -6.38561, listed as AE56461). For the same compound, the “[^3H]S-CIT dissociation relative to control (source data Fig 3B)” value at SERT WT [3] (log conc -6.86273, listed as AE56461) is 0.952 and 1.031 and 0.987. For the same compound, the “[^3H]IMI dissociation relative to control (source data Fig 3C)” value on SERT WT [4] (log conc -4.4776, listed as AE56461) was 0.06439 and 0.064 and 0.0867 and 0.04446 and 0.04701; on SERT WT [4] (setting [7]), 0.0763 and 0.076 and 0.0996 and 0.0916 and 0.07313; on SERT WT [4] (setting [8]) it was 0.1205 and 0.121 and 0.184 and 0.1786 and 0.1244; at SERT WT [4] (log conc -6.3856, listed as AE56461), 0.2609 and 0.261 and 0.334 and 0.3145 and 0.2627; at SERT WT [4] (log conc -6.8627, listed as AE56461), 0.4485 and 0.449 and 0.476 and 0.4376 and 0.458; on SERT WT [4] (log conc -7.3398, listed as AE56461), 0.6779 and 0.678 and 0.684 and 0.679 and 0.715. Further, the “[^3H]IMI dissociation relative to control (source data Fig 3C)” value at SERT WT [4] (log conc -7.817, listed as AE56461) is 0.9119 and 0.9318 and 0.9209 and 0.831 and 0.9158; at SERT WT [4] (log conc -8.2941, listed as AE56461), 1.0028 and 1.006 and 0.9639 and 1.0302 and 1.0089; at SERT WT [4] (log conc -8.7712, listed as AE56461) it was 0.9594 and 0.977 and 0.9693 and 1.1187 and 1.1091.
For the compound `CN(C)CCCN1c2ccccc2CCc2ccccc21` [imipramine, reference compound], in test [5] (Fig 6B Inset), the AUC was 84 and 92 and 130 and 62 and 48 and 46 and 143 and 182 and 163 and 129 and 74 and 127 and 73. In test [5] (Fig 6B, Time -40), the “extracellular 5-HT level” value is 77.25 and 153.32 and 98.52 and 112.22 and 48.77 and 123.66 and 115.15 and 92.18 and 91.72 and 110.66 and 146.17.

The values above are taken from paper PMC7083837 (Nature Communications, 2020).
